# Measurements: patent publication US20250255304A1, “HIGHLY TRA[…] CONTROLLING COMPOSITION” (ZM Crop Protection Corporation, priority 2022, published 2025)
# How the values were obtained:
# Format in all cases: in vivo
# [1] = system: Coptotermes formosanus Shiraki; test: Test Example 2: primary transmission treatment effect
# Procedure: (§1) A test agent solution containing 0.023 parts of dicloromezotiaz was prepared by adding 99.875 parts of water to 0.125 parts of the aqueous suspension composition shown in Formulation Example 1. As comparative examples, four types of commercially available neonicotinoid termite controlling agents and four types of slow-acting termite controlling agents shown in Table 2 were diluted with water at practical concentrations to prepare test agent solutions. The “agent concentration (%)” indicates the concentration of the active ingredient contained in each of the composition of the present invention and the termite controlling agents and the “test agent solution concentration (%)” indicates the concentration of the active ingredient in each of the prepared test agent solutions.
# (§2) After 1.2 g of each of the test agent solutions of the example and the comparative examples diluted to a predetermined concentration and prepared was added to 4.8 g of soil, 6 g of the mixed soil was spread in a glass petri dish having a diameter of 50 mm and ten workers of Coptotermes formosanus Shiraki were released into the petri dish and exposed to the agent solution for 4 hours.
# [2] = system: Coptotermes formosanus Shiraki; test: Test Example 2: secondary transmission treatment effect
# Procedure: as §1, §2
# [3] = system: Coptotermes formosanus Shiraki; test: Test Example 3: extirpation test with dust formulation using simulated termite trails; conditions: active ingredient concentration 50%
# [4] = system: Coptotermes formosanus Shiraki; test: Test Example 1: effect of agent on gypsum treated with test agent solution; conditions: dicloromezotiaz 0.023%, imidacloprid 0.1%, fipronil 0.03% test agent solution on gypsum
# Procedure: A test agent solution containing 0.023 parts of dicloromezotiaz was prepared by adding 99.875 parts of water to 0.125 parts of the aqueous suspension composition shown in Formulation Example 1.
# In a comparative example, an aqueous suspension composition prepared by adding an agent solution, wherein 99 parts of water was added to 1 part of a flowable containing 10.0 parts of imidacloprid and which contained 0.1 parts of imidacloprid and a drug solution, wherein 299 parts of water was added to 1 part of a flowable containing 9.1 parts of fipronil and which contained 0.03 parts of fipronil, uniformly mixing same was used as a test agent solution of a comparative example.
# As the imidacloprid formulation and the fipronil formulation, commercially available termite controlling agents were used and diluted solutions at practical agent concentrations thereof were used as test agent solutions.
# Gypsum was cured and spread in a glass petri dish having a diameter of 90 mm, 15 ml of each of the test agent solution of the example and the test agent solution of the comparative example was uniformly dropped on the entire surface of the gypsum. Thereafter, ten workers of Coptotermes formosanus Shiraki were released into the petri dish and the petri dish was covered and left to stand in a thermostatic chamber (25° C./relative humidity 60%).
# The number of abnormal termites and the number of dead termites among the released termites (Coptotermes formosanus Shiraki) were observed every one hour from immediately after the release of the termites (Coptotermes formosanus Shiraki) until ten hours passed and the total number of the abnormal termite rate and the dead termite rate was calculated as the abnormal or dead termite rate (%) according to [Expression 1] below and the rates of expression of the effects of the respective agents were compared. Each test agent was prepared in one petri dish as one plot and the test was carried out in two replicates.
# [5] = after 1 day, Table 3, dicloromezotiaz 0.023%, fipronil 0.03%, imidacloprid 0.10%, chlorantraniliprole 0.05% solution in soil
# [6] = after 3 days, Table 3, dicloromezotiaz 0.023%, fipronil 0.03%, imidacloprid 0.10%, chlorantraniliprole 0.05% solution in soil
# [7] = after 7 days, Table 3, dicloromezotiaz 0.023%, fipronil 0.03%, imidacloprid 0.10%, chlorantraniliprole 0.05% solution in soil
# [8] = after 14 days, Table 3, dicloromezotiaz 0.023%, fipronil 0.03%, imidacloprid 0.10%, chlorantraniliprole 0.05% solution in soil
# [9] = after 21 days, Table 3, dicloromezotiaz 0.023%, fipronil 0.03%, imidacloprid 0.10%, chlorantraniliprole 0.05% solution in soil
# [10] = after 1 day, Table 5, dicloromezotiaz 0.023%, fipronil 0.03%, imidacloprid 0.10%, chlorantraniliprole 0.05% solution in soil
# [11] = after 3 days, Table 5, dicloromezotiaz 0.023%, fipronil 0.03%, imidacloprid 0.10%, chlorantraniliprole 0.05% solution in soil
# [12] = after 7 days, Table 5, dicloromezotiaz 0.023%, fipronil 0.03%, imidacloprid 0.10%, chlorantraniliprole 0.05% solution in soil
# [13] = after 14 days, Table 5, dicloromezotiaz 0.023%, fipronil 0.03%, imidacloprid 0.10%, chlorantraniliprole 0.05% solution in soil
# [14] = after 21 days, Table 5, dicloromezotiaz 0.023%, fipronil 0.03%, imidacloprid 0.10%, chlorantraniliprole 0.05% solution in soil
# [15] = after 1 day, Table 4, dicloromezotiaz 0.023%, chlorfenapyr 0.11%, clothianidin 0.05%, dinotefuran 0.20%, thiamethoxam 0.10%, broflanilide 0.03% solution in soil
# [16] = after 3 days, Table 4, dicloromezotiaz 0.023%, chlorfenapyr 0.11%, clothianidin 0.05%, dinotefuran 0.20%, thiamethoxam 0.10%, broflanilide 0.03% solution in soil
# [17] = after 7 days, Table 4, dicloromezotiaz 0.023%, chlorfenapyr 0.11%, clothianidin 0.05%, dinotefuran 0.20%, thiamethoxam 0.10%, broflanilide 0.03% solution in soil
# [18] = after 14 days, Table 4, dicloromezotiaz 0.023%, chlorfenapyr 0.11%, clothianidin 0.05%, dinotefuran 0.20%, thiamethoxam 0.10%, broflanilide 0.03% solution in soil
# [19] = after 21 days, Table 4, dicloromezotiaz 0.023%, chlorfenapyr 0.11%, clothianidin 0.05%, dinotefuran 0.20%, thiamethoxam 0.10%, broflanilide 0.03% solution in soil
# [20] = after 1 day, Table 6, dicloromezotiaz 0.023%, chlorfenapyr 0.11%, clothianidin 0.05%, dinotefuran 0.20%, thiamethoxam 0.10%, broflanilide 0.03% solution in soil
# [21] = after 3 days, Table 6, dicloromezotiaz 0.023%, chlorfenapyr 0.11%, clothianidin 0.05%, dinotefuran 0.20%, thiamethoxam 0.10%, broflanilide 0.03% solution in soil
# [22] = after 7 days, Table 6, dicloromezotiaz 0.023%, chlorfenapyr 0.11%, clothianidin 0.05%, dinotefuran 0.20%, thiamethoxam 0.10%, broflanilide 0.03% solution in soil
# [23] = after 14 days, Table 6, dicloromezotiaz 0.023%, chlorfenapyr 0.11%, clothianidin 0.05%, dinotefuran 0.20%, thiamethoxam 0.10%, broflanilide 0.03% solution in soil
# [24] = after 21 days, Table 6, dicloromezotiaz 0.023%, chlorfenapyr 0.11%, clothianidin 0.05%, dinotefuran 0.20%, thiamethoxam 0.10%, broflanilide 0.03% solution in soil
SMILES,"Abnormal or dead termite rate (%) [1, 15] [%]","Abnormal or dead termite rate (%) [1, 16] [%]","Abnormal or dead termite rate (%) [1, 17] [%]","Abnormal or dead termite rate (%) [1, 18] [%]","Abnormal or dead termite rate (%) [1, 19] [%]","Abnormal or dead termite rate (%) [2, 20] [%]","Abnormal or dead termite rate (%) [2, 21] [%]","Abnormal or dead termite rate (%) [2, 22] [%]","Abnormal or dead termite rate (%) [2, 23] [%]","Abnormal or dead termite rate (%) [2, 24] [%]",further results
CNC(=O)c1cc(Cl)cc(C)c1NC(=O)c1cc(Br)nn1-c1ncccc1Cl [Chlorantraniliprole],,,,,,,,,,,"Abnormal or dead termite rate (%) [1, 5]: 98%; Abnormal or dead termite rate (%) [1, 6]: 100%; Abnormal or dead termite rate (%) [1, 7]: 85%; Abnormal or dead termite rate (%) [1, 8]: 80%; Abnormal or dead termite rate (%) [1, 9]: 85%; Abnormal or dead termite rate (%) [2, 10]: 10%; Abnormal or dead termite rate (%) [2, 11]: 2.2%; Abnormal or dead termite rate (%) [2, 12]: 1.1%; Abnormal or dead termite rate (%) [2, 13]: 2.2%; Abnormal or dead termite rate (%) [2, 14]: 7.8%"
CN1COCN(Cc2cnc(Cl)s2)/C1=N\[N+](=O)[O-] [Thiamethoxam],98,91,98,95,96,0,0,3.3,3.3,4.4,
CCOCn1c(-c2ccc(Cl)cc2)c(C#N)c(Br)c1C(F)(F)F [Chlorfenapyr],89,80,89,100,100,0,0,3.3,7.8,31,
"N#Cc1ccc(CC(=NNC(=O)Nc2ccc(OC(F)(F)F)cc2)c2cccc(C(F)(F)F)c2)cc1 (mixture of isomers) [Metaflumizone, metaflumizone]",,,,,,,,,,,Abnormal or dead termite rate (%) ([3]; 1 h): 0%; Abnormal or dead termite rate (%) ([3]; 2 h): 0%; Abnormal or dead termite rate (%) ([3]; 3 h): 0%; Abnormal or dead termite rate (%) ([3]; 4 h): 0%; Abnormal or dead termite rate (%) ([3]; 5 h): 0%; Abnormal or dead termite rate (%) ([3]; 6 h): 0%; Abnormal or dead termite rate (%) ([3]; 7 h): 0%; Abnormal or dead termite rate (%) ([3]; 1 day): 100%; Abnormal or dead termite rate (%) ([3]; 2 days): 100%; Abnormal or dead termite rate (%) ([3]; 3 days): 100%; Abnormal or dead termite rate (%) ([3]; 7 days): 100%
CN(C(=O)c1ccccc1)c1cccc(C(=O)Nc2c(Br)cc(C(F)(C(F)(F)F)C(F)(F)F)cc2C(F)(F)F)c1F [Broflanilide],100,73,48,53,56,2.2,0,3.3,5.6,6.7,
CN/C(=N/CC1CCOC1)N[N+](=O)[O-] (stereo not shown) [Dinotefuran],93,94,96,98,99,24,18,16,18,22,
O=[N+]([O-])NC1=NCCN1Cc1ccc(Cl)nc1 [Imidacloprid],,,,,,,,,,,"Abnormal or dead termite rate (%) ([4]; time elapsed 1 h): 100%; Abnormal or dead termite rate (%) ([4]; time elapsed 2 h): 100%; Abnormal or dead termite rate (%) ([4]; time elapsed 3 h): 100%; Abnormal or dead termite rate (%) ([4]; time elapsed 4 h): 100%; Abnormal or dead termite rate (%) ([4]; time elapsed 5 h): 100%; Abnormal or dead termite rate (%) ([4]; time elapsed 6 h): 100%; Abnormal or dead termite rate (%) ([4]; time elapsed 7 h): 100%; Abnormal or dead termite rate (%) ([4]; time elapsed 8 h): 100%; Abnormal or dead termite rate (%) ([4]; time elapsed 9 h): 100%; Abnormal or dead termite rate (%) ([4]; time elapsed 10 h): 100%; Abnormal or dead termite rate (%) [1, 5]: 92%; Abnormal or dead termite rate (%) [1, 6]: 22%; Abnormal or dead termite rate (%) [1, 7]: 11%; Abnormal or dead termite rate (%) [1, 8]: 14%; Abnormal or dead termite rate (%) [1, 9]: 15%; Abnormal or dead termite rate (%) [2, 10]: 0%; Abnormal or dead termite rate (%) [2, 11]: 1.1%; Abnormal or dead termite rate (%) [2, 12]: 1.1%; Abnormal or dead termite rate (%) [2, 13]: 1.1%; Abnormal or dead termite rate (%) [2, 14]: 1.2%"
CN/C(=N\[N+](=O)[O-])NCc1cnc(Cl)s1 [Clothianidin],94,89,75,91,94,0,0,3.3,3.3,4.4,
